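In this assay, cells in 96-well plates receive the compound at five concentrations for 48 hours. Endpoints are linearly interpolated between the surrounding concentrations. TGI is the concentration that stops growth completely.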
Experiments:
Assay in all cases: DTP human tumour cell line panel, 48 h
[1] = system: 786-0 renal
[2] = system: A498 renal
[3] = system: A549 NSCLC
[4] = system: ACHN renal
[5] = system: BT-549 breast
[6] = system: CAKI-1 renal
[7] = system: CCRF-CEM leukemia
[8] = system: COLO 205 colon
[9] = system: DU-145 prostate
[10] = system: EKVX NSCLC
[11] = system: HCC-2998 colon
[12] = system: HCT-116 colon
[13] = system: HCT-15 colon
[14] = system: HL-60(TB) leukemia
[15] = system: HOP-62 NSCLC
[16] = system: HOP-92 NSCLC
[17] = system: HS 578T breast
[18] = system: IGROV1 ovarian
[19] = system: K-562 leukemia
[20] = system: KM12 colon
[21] = system: LOX IMVI melanoma
[22] = system: M14 melanoma
[23] = system: MALME-3M melanoma
[24] = system: MDA-MB-231 breast
[25] = system: MDA-N
[26] = system: MOLT-4 leukemia
[27] = system: NCI-H23 lung
[28] = system: NCI-H460 lung
[29] = system: NCI-H522 lung
[30] = system: NCI/ADR-RES ovarian
[31] = system: OVCAR-3 ovarian
[32] = system: OVCAR-4 ovarian
[33] = system: OVCAR-5 ovarian
[34] = system: OVCAR-8 ovarian
[35] = system: PC-3 prostate
[36] = system: RXF 393 renal
[37] = system: SF-268 CNS
[38] = system: SF-295 CNS
[39] = system: SF-539 CNS
[40] = system: SK-MEL-2 melanoma
[41] = system: SK-MEL-5 melanoma
[42] = system: SK-OV-3 ovarian
[43] = system: SN12C renal
[44] = system: SNB-19 CNS
[45] = system: SNB-75 CNS
[46] = system: SR leukemia
[47] = system: SW-620 colon
[48] = system: T-47D breast
[49] = system: TK-10 renal
[50] = system: U251 CNS
[51] = system: UACC-257 melanoma
[52] = system: UACC-62 melanoma
[53] = system: HT29 colon
[54] = system: MCF7 breast
[55] = system: MDA-MB-435
[56] = system: NCI-H226 lung
[57] = system: RPMI-8226 leukemia
[58] = system: SK-MEL-28 melanoma
[59] = system: UO-31 renal

Work on `C/C(=N\Nc1nc2ccccc2[nH]1)c1ncccn1` yielded a TGI [1] of over 100 µM, a TGI [2] of 2.23 µM and a TGI [3] of over 93 µM. The TGI [4] was 0.201 µM, the TGI [5] was over 100 µM and the TGI [6] was 23.7 µM. It also gave a TGI [7] of over 100 µM, a TGI [8] of over 49.6 µM and a TGI [9] of over 100 µM. For the same molecule, the TGI [10] was 25.8 µM, the TGI [11] was over 100 µM and the TGI [12] was 1.74 µM. For the same molecule, the TGI [13] was over 100 µM, the TGI [14] was 0.0343 µM and the TGI [15] was 49.4 µM. The TGI [16] was 1.93 µM, the TGI [17] was over 100 µM and the TGI [18] was 9.41 µM. It also gave a TGI [19] of over 100 µM, a TGI [20] of over 46.9 µM and a TGI [21] of over 100 µM. It also gave a TGI [22] of 0.322 µM, a TGI [23] of 8.89 µM and a TGI [24] of over 29.2 µM. For the same molecule, the TGI [25] was over 100 µM, the TGI [26] was over 100 µM and the TGI [27] was 8.58 µM. For the same molecule, the TGI [28] was over 100 µM, the TGI [29] was over 64.3 µM and the TGI [30] was 0.426 µM. The TGI [31] was 6.7 µM, the TGI [32] was over 100 µM and the TGI [33] was over 100 µM. The TGI [34] was over 39 µM, the TGI [35] was over 66 µM and the TGI [36] was over 32.5 µM. The TGI [37] was over 93.3 µM, the TGI [38] was over 100 µM and the TGI [39] was 0.0543 µM. It also gave a TGI [40] of 17.7 µM, a TGI [41] of 1.34 µM and a TGI [42] of over 100 µM. For the same molecule, the TGI [43] was 0.991 µM, the TGI [44] was over 100 µM and the TGI [45] was over 90.3 µM. For the same molecule, the TGI [46] was over 100 µM, the TGI [47] was over 100 µM and the TGI [48] was over 100 µM. The TGI [49] was over 78.1 µM, the TGI [50] was over 100 µM and the TGI [51] was over 35.2 µM. For the same molecule, the TGI [52] was 2.88 µM.

Work on `C=C(CN(CC)CC)C1(c2ccccc2)CC2(CCCC2)C(=O)O1` (centres undefined) yielded a TGI [1] of over 100 µM, a TGI [2] of over 100 µM and a TGI [3] of over 100 µM. It also gave a TGI [4] of over 100 µM, a TGI [6] of over 100 µM and a TGI [7] of over 100 µM. It also gave a TGI [8] of over 100 µM, a TGI [9] of over 100 µM and a TGI [10] of over 100 µM. For the same molecule, the TGI [11] was over 100 µM, the TGI [12] was over 100 µM and the TGI [13] was over 100 µM. It also gave a TGI [14] of over 100 µM, a TGI [15] of over 100 µM and a TGI [16] of 83.3 µM. It also gave a TGI [17] of over 100 µM, a TGI [53] of 77.9 µM and a TGI [18] of over 100 µM. It also gave a TGI [19] of over 100 µM, a TGI [20] of over 100 µM and a TGI [21] of over 100 µM. It also gave a TGI [22] of over 100 µM, a TGI [23] of over 100 µM and a TGI [54] of over 100 µM. It also gave a TGI [24] of over 100 µM, a TGI [55] of over 100 µM and a TGI [25] of over 100 µM. The TGI [26] was over 100 µM, the TGI [56] was over 100 µM and the TGI [27] was 98.9 µM. It also gave a TGI [28] of over 100 µM, a TGI [29] of over 100 µM and a TGI [30] of 84.4 µM. For the same molecule, the TGI [31] was over 100 µM, the TGI [32] was over 100 µM and the TGI [33] was over 100 µM. The TGI [34] was over 100 µM, the TGI [35] was over 100 µM and the TGI [57] was over 100 µM. For the same molecule, the TGI [36] was over 100 µM, the TGI [37] was over 100 µM and the TGI [38] was over 100 µM. It also gave a TGI [39] of over 100 µM, a TGI [40] of over 100 µM and a TGI [58] of over 100 µM. For the same molecule, the TGI [41] was over 100 µM, the TGI [42] was over 100 µM and the TGI [43] was over 100 µM. For the same molecule, the TGI [44] was over 100 µM, the TGI [45] was 92.6 µM and the TGI [46] was over 100 µM. For the same molecule, the TGI [47] was over 100 µM, the TGI [48] was over 100 µM and the TGI [49] was over 100 µM. The TGI [50] was over 100 µM, the TGI [51] was 98.9 µM and the TGI [52] was over 100 µM. The TGI [59] was over 100 µM.

`O=C1CCCCC/C1=C\c1cccc(F)c1` was tested, and the TGI [1] was over 100 µM, the TGI [2] was over 100 µM and the TGI [3] was over 100 µM. The TGI [4] was over 100 µM, the TGI [5] was over 100 µM and the TGI [6] was over 100 µM. It also gave a TGI [7] of 81.4 µM, a TGI [8] of over 100 µM and a TGI [9] of over 100 µM. For the same molecule, the TGI [10] was over 100 µM, the TGI [11] was over 100 µM and the TGI [12] was over 100 µM. The TGI [13] was over 100 µM, the TGI [14] was over 100 µM and the TGI [15] was over 100 µM. The TGI [53] was over 100 µM, the TGI [18] was over 100 µM and the TGI [19] was over 100 µM. For the same molecule, the TGI [20] was over 100 µM, the TGI [22] was over 100 µM and the TGI [23] was over 100 µM. For the same molecule, the TGI [54] was over 100 µM, the TGI [24] was over 100 µM and the TGI [55] was over 100 µM. For the same molecule, the TGI [25] was over 100 µM, the TGI [26] was over 100 µM and the TGI [28] was over 100 µM. The TGI [30] was over 100 µM, the TGI [31] was over 100 µM and the TGI [33] was over 100 µM. It also gave a TGI [34] of over 100 µM, a TGI [35] of over 100 µM and a TGI [57] of 97.5 µM. The TGI [36] was over 100 µM, the TGI [37] was over 100 µM and the TGI [38] was over 100 µM. For the same molecule, the TGI [39] was over 100 µM, the TGI [40] was over 100 µM and the TGI [58] was over 100 µM. For the same molecule, the TGI [41] was over 100 µM, the TGI [42] was over 100 µM and the TGI [43] was over 100 µM. The TGI [44] was over 100 µM, the TGI [45] was over 100 µM and the TGI [46] was 61.2 µM. The TGI [47] was over 100 µM, the TGI [48] was over 100 µM and the TGI [49] was over 100 µM. It also gave a TGI [50] of over 100 µM, a TGI [51] of over 100 µM and a TGI [52] of over 100 µM. It also gave a TGI [59] of over 100 µM.

`CN(C)C=N[C@@H](C(=O)O)c1ccccc1` gave a TGI [1] of over 100 µM, a TGI [2] of over 100 µM and a TGI [3] of over 100 µM. It also gave a TGI [4] of over 100 µM, a TGI [5] of over 100 µM and a TGI [7] of over 100 µM. It also gave a TGI [8] of over 100 µM, a TGI [9] of over 100 µM and a TGI [10] of over 100 µM. The TGI [11] was over 100 µM, the TGI [12] was over 100 µM and the TGI [13] was over 100 µM. The TGI [14] was over 100 µM, the TGI [15] was over 100 µM and the TGI [16] was over 100 µM. For the same molecule, the TGI [53] was over 100 µM, the TGI [18] was over 100 µM and the TGI [19] was over 100 µM. The TGI [21] was over 100 µM, the TGI [22] was over 100 µM and the TGI [23] was over 100 µM. For the same molecule, the TGI [54] was over 100 µM, the TGI [24] was over 100 µM and the TGI [55] was over 100 µM. The TGI [25] was over 100 µM, the TGI [26] was over 100 µM and the TGI [56] was over 100 µM. The TGI [27] was over 100 µM, the TGI [28] was over 100 µM and the TGI [30] was over 100 µM. It also gave a TGI [31] of over 100 µM, a TGI [32] of over 100 µM and a TGI [33] of over 100 µM. For the same molecule, the TGI [34] was over 100 µM, the TGI [35] was over 100 µM and the TGI [57] was over 100 µM. For the same molecule, the TGI [37] was over 100 µM, the TGI [38] was over 100 µM and the TGI [58] was over 100 µM. It also gave a TGI [41] of over 100 µM, a TGI [42] of over 100 µM and a TGI [43] of over 100 µM. For the same molecule, the TGI [44] was over 100 µM, the TGI [45] was over 100 µM and the TGI [46] was over 100 µM. It also gave a TGI [47] of over 100 µM, a TGI [48] of over 100 µM and a TGI [49] of over 100 µM. For the same molecule, the TGI [50] was over 100 µM, the TGI [51] was over 100 µM and the TGI [52] was over 100 µM. It also gave a TGI [59] of over 100 µM.

— PubChem BioAssay (NCI)
